# Reference: the NIST ThermoML archive (doi:10.1016/j.jct.2014.04.022)
# Where “and” joins values, the source holds several entries; their conditions need not be identical. Identical values can stand only once. Numbers after ± are expanded uncertainties.
# Experiments:
# [1] = molar heat capacity at constant pressure; settings: 101.33 kPa, Large sample (1 g) DSC
# [2] = Molar enthalpy of transition or fusion; settings: Crystal; DSC
# [3] = 273.65 K; Liquid; Closed cell (Static) method
# [4] = 278.15 K; Liquid; Closed cell (Static) method
# [5] = 283.15 K; Liquid; Closed cell (Static) method
# [6] = 288.15 K; Liquid; Closed cell (Static) method
# [7] = 293.15 K; Liquid; Closed cell (Static) method
# [8] = 298.15 K; Liquid; Closed cell (Static) method
# [9] = 303.15 K; Liquid; Closed cell (Static) method
# [10] = 308.15 K; Liquid; Closed cell (Static) method
smiles,measurement,setting,value
C=C(C)[C@@H]1CC=C(C)CC1 [(S)-1-methyl-4-(1-methylethenyl)cyclohexene],vapor or sublimation pressure,[3],0.03073 ± 0.00079 kPa and 0.03074 ± 0.00079 kPa and 0.03075 ± 0.00079 kPa
same,vapor or sublimation pressure,[4],0.0441 ± 0.001 kPa and 0.04411 ± 0.001 kPa
same,vapor or sublimation pressure,[5],0.06487 ± 0.0014 kPa and 0.06488 ± 0.0014 kPa and 0.0649 ± 0.0014 kPa
same,vapor or sublimation pressure,[6],0.09392 ± 0.0019 kPa and 0.09395 ± 0.0019 kPa
same,vapor or sublimation pressure,[7],0.1339 ± 0.0023 kPa
same,vapor or sublimation pressure,[8],0.1883 ± 0.003 kPa
same,vapor or sublimation pressure,[9],0.2609 ± 0.0039 kPa and 0.261 ± 0.0039 kPa
same,vapor or sublimation pressure,[10],0.3575 ± 0.005 kPa and 0.3576 ± 0.005 kPa
same,molar heat capacity at constant pressure,"[1]; 260.1 K, Liquid",240.3 ± 4.2 J/K/mol
same,molar heat capacity at constant pressure,"[1]; 265 K, Liquid",242.5 ± 4.2 J/K/mol
same,molar heat capacity at constant pressure,"[1]; 270 K, Liquid",244.8 ± 4.2 J/K/mol
same,molar heat capacity at constant pressure,"[1]; 275 K, Liquid",247.1 ± 4.2 J/K/mol
same,molar heat capacity at constant pressure,"[1]; 280 K, Liquid",249.2 ± 4.3 J/K/mol
same,molar heat capacity at constant pressure,"[1]; 285 K, Liquid",251.3 ± 4.3 J/K/mol
same,molar heat capacity at constant pressure,"[1]; 290 K, Liquid",253.4 ± 4.4 J/K/mol
same,molar heat capacity at constant pressure,"[1]; 295 K, Liquid",255.8 ± 4.4 J/K/mol
same,molar heat capacity at constant pressure,"[1]; 300 K, Liquid",257.8 ± 4.5 J/K/mol
same,molar heat capacity at constant pressure,"[1]; 305 K, Liquid",260.2 ± 4.5 J/K/mol
same,molar heat capacity at constant pressure,"[1]; 310 K, Liquid",262.5 ± 4.6 J/K/mol
C=C(C)[C@H]1CC=C(C)CC1 [(R)-1-methyl-4-(1-methylethenyl)cyclohexene],vapor or sublimation pressure,238.2 K; Liquid; Closed cell (Static) method,0.001012 ± 0.00011 kPa and 0.001013 ± 0.00011 kPa
same,vapor or sublimation pressure,243.2 K; Liquid; Closed cell (Static) method,0.001755 ± 0.00012 kPa and 0.001756 ± 0.00012 kPa
same,vapor or sublimation pressure,248.15 K; Liquid; Closed cell (Static) method,0.002958 ± 0.00015 kPa and 0.002959 ± 0.00015 kPa and 0.00296 ± 0.00015 kPa
same,vapor or sublimation pressure,253.15 K; Liquid; Closed cell (Static) method,0.00489 ± 0.00021 kPa and 0.004891 ± 0.00021 kPa and 0.004889 ± 0.00021 kPa
same,vapor or sublimation pressure,258.15 K; Liquid; Closed cell (Static) method,0.0079 ± 0.00032 kPa and 0.007901 ± 0.00032 kPa
same,vapor or sublimation pressure,263.15 K; Liquid; Closed cell (Static) method,0.01251 ± 0.0005 kPa and 0.01252 ± 0.0005 kPa
same,vapor or sublimation pressure,268.15 K; Liquid; Closed cell (Static) method,0.01942 ± 0.00061 kPa
same,vapor or sublimation pressure,273.15 K; Liquid; Closed cell (Static) method,0.02957 ± 0.00077 kPa
same,vapor or sublimation pressure,[3],0.0308 ± 0.00079 kPa and 0.03082 ± 0.00079 kPa
same,vapor or sublimation pressure,[4],0.04422 ± 0.001 kPa
same,vapor or sublimation pressure,[5],0.06502 ± 0.0014 kPa and 0.06504 ± 0.0014 kPa and 0.06505 ± 0.0014 kPa
same,vapor or sublimation pressure,[6],0.09414 ± 0.0019 kPa and 0.09416 ± 0.0019 kPa
same,vapor or sublimation pressure,[7],0.1343 ± 0.0023 kPa
same,vapor or sublimation pressure,[8],0.1888 ± 0.003 kPa and 0.1889 ± 0.003 kPa
same,vapor or sublimation pressure,[9],0.262 ± 0.0039 kPa
same,vapor or sublimation pressure,[10],0.3589 ± 0.0051 kPa
"CC12CCC(CC1)C(C)(C)O2 [1,3,3-trimethyl-2-oxabicyclo[2.2.2]octane]",vapor or sublimation pressure,238.2 K; Crystal; Closed cell (Static) method,0.00051 ± 0.00011 kPa and 0.000512 ± 0.00011 kPa
same,vapor or sublimation pressure,243.2 K; Crystal; Closed cell (Static) method,0.001022 ± 0.00011 kPa and 0.001023 ± 0.00011 kPa
same,vapor or sublimation pressure,248.15 K; Crystal; Closed cell (Static) method,0.00197 ± 0.00013 kPa and 0.001971 ± 0.00013 kPa and 0.001972 ± 0.00013 kPa
same,vapor or sublimation pressure,253.15 K; Crystal; Closed cell (Static) method,0.003705 ± 0.00017 kPa and 0.003709 ± 0.00017 kPa and 0.003703 ± 0.00017 kPa
same,vapor or sublimation pressure,253.15 K; Metastable liquid; Closed cell (Static) method,0.006217 ± 0.00026 kPa and 0.006221 ± 0.00026 kPa and 0.006222 ± 0.00026 kPa
same,vapor or sublimation pressure,258.15 K; Crystal; Closed cell (Static) method,0.006771 ± 0.00028 kPa and 0.006776 ± 0.00028 kPa and 0.006782 ± 0.00028 kPa
same,vapor or sublimation pressure,258.15 K; Metastable liquid; Closed cell (Static) method,0.01 ± 0.0004 kPa and 0.01001 ± 0.0004 kPa
same,vapor or sublimation pressure,263.15 K; Crystal; Closed cell (Static) method,0.01211 ± 0.00048 kPa
same,vapor or sublimation pressure,263.15 K; Metastable liquid; Closed cell (Static) method,0.01574 ± 0.00056 kPa and 0.01575 ± 0.00056 kPa and 0.01576 ± 0.00056 kPa
same,vapor or sublimation pressure,268.15 K; Crystal; Closed cell (Static) method,0.02109 ± 0.00064 kPa and 0.0211 ± 0.00064 kPa
same,vapor or sublimation pressure,268.15 K; Metastable liquid; Closed cell (Static) method,0.02431 ± 0.00069 kPa [middle of 4 runs]
same,vapor or sublimation pressure,273.15 K; Crystal; Closed cell (Static) method,0.03596 ± 0.00088 kPa and 0.03597 ± 0.00088 kPa
same,vapor or sublimation pressure,273.65 K; Metastable liquid; Closed cell (Static) method,0.03833 ± 0.00092 kPa and 0.03835 ± 0.00092 kPa and 0.03836 ± 0.00092 kPa
same,vapor or sublimation pressure,278.15 K; Closed cell (Static) method; Liquid,0.05478 ± 0.0012 kPa and 0.0548 ± 0.0012 kPa
same,vapor or sublimation pressure,283.15 K; Closed cell (Static) method; Liquid,0.0801 ± 0.0016 kPa and 0.08012 ± 0.0016 kPa
same,vapor or sublimation pressure,288.15 K; Closed cell (Static) method; Liquid,0.1151 ± 0.0022 kPa and 0.1152 ± 0.0022 kPa
same,vapor or sublimation pressure,293.15 K; Closed cell (Static) method; Liquid,0.1637 ± 0.0027 kPa
same,vapor or sublimation pressure,298.15 K; Closed cell (Static) method; Liquid,0.2295 ± 0.0035 kPa and 0.2296 ± 0.0035 kPa
same,vapor or sublimation pressure,303.15 K; Closed cell (Static) method; Liquid,0.3169 ± 0.0046 kPa and 0.317 ± 0.0046 kPa
same,Normal melting temperature,Crystal; DTA,1.0 ± 0.5 °C
same,Molar enthalpy of transition or fusion,[2],3.3 ± 0.0956 kcal/mol
same,molar heat capacity at constant pressure,"[1]; 273.4 K, Metastable liquid",257.8 ± 4.5 J/K/mol
same,molar heat capacity at constant pressure,"[1]; 278.5 K, Liquid",260.2 ± 4.5 J/K/mol
same,molar heat capacity at constant pressure,"[1]; 283.6 K, Liquid",262.3 ± 4.6 J/K/mol
same,molar heat capacity at constant pressure,"[1]; 288.7 K, Liquid",264.6 ± 4.6 J/K/mol
same,molar heat capacity at constant pressure,"[1]; 293.8 K, Liquid",267.3 ± 4.7 J/K/mol
same,molar heat capacity at constant pressure,"[1]; 298.9 K, Liquid",270.7 ± 4.7 J/K/mol
same,molar heat capacity at constant pressure,"[1]; 304 K, Liquid",273.3 ± 4.7 J/K/mol
same,molar heat capacity at constant pressure,"[1]; 309.1 K, Liquid",276.1 ± 4.8 J/K/mol
same,molar heat capacity at constant pressure,"[1]; 314.2 K, Liquid",279.3 ± 4.8 J/K/mol
same,molar heat capacity at constant pressure,"[1]; 319.4 K, Liquid",281.4 ± 4.9 J/K/mol
same,molar heat capacity at constant pressure,"[1]; 324.5 K, Liquid",284.6 ± 4.9 J/K/mol
same,molar heat capacity at constant pressure,"[1]; 329.6 K, Liquid",288 ± 5 J/K/mol
same,molar heat capacity at constant pressure,"[1]; 334.7 K, Liquid",290.9 ± 5.1 J/K/mol
same,molar heat capacity at constant pressure,"[1]; 339.8 K, Liquid",294.2 ± 5.1 J/K/mol
same,molar heat capacity at constant pressure,"[1]; 344.9 K, Liquid",297.3 ± 5.2 J/K/mol
same,molar heat capacity at constant pressure,"[1]; 350 K, Liquid",301.2 ± 5.2 J/K/mol
same,molar heat capacity at constant pressure,"[1]; 355.1 K, Liquid",304.6 ± 5.2 J/K/mol
